Data on 8 compounds can be found in patent EP4745128A1, “COMPOUND, PHARMACEUTICAL COMPOSITION COMPRISING SAME, AND USE THEREOF” (Shenzhen Zhongge Biological Technology Co., Ltd., priority 2023, dated 2025).

In one data set the test system is model animals. The following applies: after three days of oral administration; cited from earlier work.
Data set [1] relates to HEK293T/17-ATF4 uORF-Luc-Puro monoclonal cells. The experiment in a line: Cellular activity assay: ATF4 luciferase reporter, thapsigargin-induced stress. It is filed as cell-based. Particulars: Homo sapiens, HEK-293T; ATF4 reporter expression; 50 nM thapsigargin, 6 h incubation. The text has this:
The ATF4 luciferase reporter plasmid consists of two components: the 5' untranslated region sequence of the ATF4 gene and the luciferase encoding sequence. Specifically, the ATF4 5' untranslated region sequence (NCBI Database accession number BC022088.2) containing two upstream open reading frames (uORFs) and the firefly luciferase encoding gene were cloned into the pLVX-Puro vector (Unibio, VT1465). The packaging plasmids for lentivirus are psPAX2 (Unibio, VT1444) and pMD2.G (Unibio, VT1443). The three plasmids above were co-transfected into HEK293T/17 cells using X-tremeGENE 9 DNA transfection reagent, and the lentivirus-containing culture medium was collected 48 hours post-transfection. The HEK293T/17 cells transduced with the lentivirus were selected using 1 µg/mL puromycin, followed by obtaining a monoclonal cell line via limited dilution.
Using this cell line, the translational regulation of ATF4 can be detected via […], and the activity of the eIF2B activator can be tested. The specific experimental procedure was as follows: Seed 6,000 HEK293T/17-ATF4 uORF-Luc-Puro monoclonal cells in a 384-well plate and allow the cells to adhere overnight. The test compounds were dissolved in DMSO and added along with 50 nM thapsigargin into the cell culture medium, followed by incubation for 6 h. Thapsigargin was used to induce cellular stress, thereby upregulating translation of the ATF4 protein. After 6 hours of treatment, cells were lysed using the One-Glo Luciferase Assay Kit (Promega #E6120), then the luminescence values were measured using the LUM program of the EnVision 2104 plate reader.
The relative expression level of the ATF4 reporter gene (ATF4 reporter expression %) was calculated as follows: • ATF4 reporter expression %=(ave_sample-ave_vc)/(ave_pc-ave_vc)*100%. • ave_vc: mean signal value of negative control • ave_pc: mean signal value of positive control • ave_sample: mean signal value of sample
The EC50 value was calculated by fitting a dose-response curve: • The correspondence between the relative expression level of the ATF4 reporter gene and the compound concentration was fitted using the nonlinear regression log(inhibitor) vs. response - variable slope (four parameters) approach in GraphPad 9 software. • X axis: log of compound concentration; Y: relative expression level of ATF4 reporter gene. • Y = Bottom + (Top−Bottom)/(1+10^(∧)((LogEC50−X)*HillSlope)) [formula]
On the technique in general: In a reporter assay the amount or activity of a reporter protein is the signal.

Data set [2] is described as follows: Pharmacokinetic assessment in mice. It is filed as in vivo. The following applies: plasma. The procedure:
The test compound was dissolved in a solvent to prepare a clear solution or homogeneous suspension. Three mice per group were administered 1 mg/kg intravenously in the tails and 30 mg/kg orally (PO). Blood samples were collected at 0.083 h, 0.25 h, 0.5 h, 1 h, 2 h, 4 h, 8 h, and 24 h post intravenous administration, and at 0.25 h, 0.5 h, 1 h, 2 h, 4 h, 6 h, 8 h, and 24 h post oral administration. Plasma samples were centrifuged to obtain the supernatant, which was prepared as samples for quantitative analysis by LC/MS/MS. Table 2 PK Properties of Exemplary Compound 3 in Mice

The conditions of data set [3]: Phase 1 data from healthy subjects; cited from earlier work.
Another data set has as its system mouse models. Particulars: cited from earlier work.

A value given as a limit tells only on which side of the number the result lay.

With `NC(CO)(CO)CO.O=C(COc1ccc(Cl)c(F)c1)NC12CCC(NC(=O)COc3ccc(Cl)c(F)c3)(CC1)[C@@H](OCOP(=O)([O-])O)C2.[Na+]` [ABBV-CLS-7262], the brain function entry in the data set on model animals is on record as “restored to youthful levels”.

Compound `O=C(COc1ccc(Cl)c(F)c1)N[C@H]1CC[C@H](Nc2nccnc2O[C@H]2C[C@@H](OC(F)(F)F)C2)CC1` [Compound 1] had an EC50 in data set [1] of 0.01 to 0.1 µM.

`O=C(COc1ccc(Cl)c(F)c1)N[C@H]1CC[C@H](Nc2ncccc2O[C@H]2C[C@@H](OC(F)(F)F)C2)CC1` [Compound 2]: the EC50 in data set [1] is > 0.1 µM.

`O=C(CO[C@H]1C[C@@H](OC(F)(F)F)C1)NC12CC(Nc3nccnc3O[C@H]3C[C@@H](OC(F)(F)F)C3)(C1)C2` [Compound 3] showed an EC50 in data set [1] of 0.001 to 0.01 µM. Besides, in data set [2] (mouse IV (1 mg/kg)), the AUC(0-t) was 6.32 µg·h/mL, the C0 turned out to be 2.62 µg/mL, the clearance was 0.149 L/h/kg and the half-life was 7.37 h. Moreover, the Vd in data set [2] (mouse IV (1 mg/kg), read-out: Vss) came to 1410 L/kg. Besides, in data set [2] (mouse PO (30 mg/kg)), the AUC(0-t) worked out at 217 µg·h/mL, the Cmax amounted to 20.1 µg/mL, the Tmax is 2.33 h and the bioavailability came to 114%. This compound also gave a half-life in data set [2] (mouse PO (30 mg/kg)) of 8.52 h.

Consider `FC(F)(F)OC1CN(c2nnc([C@H]3CC[C@H](Nc4nccnc4O[C@H]4C[C@@H](OC(F)(F)F)C4)CC3)o2)C1` [Compound 4], for which the EC50 in data set [1] was > 0.1 µM.

As to `O=C(CO[C@H]1C[C@@H](OC(F)(F)F)C1)N[C@H]1CC[C@H](Nc2nccnc2O[C@H]2C[C@@H](OC(F)(F)F)C2)CC1` [Compound 5], the EC50 in data set [1] is > 0.1 µM.

As to `O=C(COc1ccc(Cl)cc1)NC12CC(c3nnc([C@H]4C[C@@H](OC(F)(F)F)C4)o3)(C1)C2` [DNL-343], the safety and tolerability result in data set [3] is “safe and well-tolerated”.

For the compound `O=C(COc1ccc(Cl)cc1)NC1CCC(NC(=O)COc2ccc(Cl)cc2)CC1` (stereo not drawn) [ISRIB], in the data set with mouse models, the long-term memory result is listed as “improve long-term memory”.

As usually defined, the EC50 is the concentration giving half of the maximal effect. Low readings indicate a more potent agent, high ones a less potent agent. Broadly, the AUC(0-t) is the area under the concentration-time curve up to a stated or last time point. High values mean high exposure, low ones low exposure. What is called clearance is a measure of how efficiently the substance is removed, as volume per time. Broadly, the half-life is how long it takes for the measured level to halve. A high value points to slow decline. In general, Cmax refers to the highest concentration seen after dosing. One may read the Tmax as the time from dosing to the highest level.
